In brackets after ≈: the same amount, converted by molar mass. Activity calls are given as the source filed them. The rule behind the calls is not given here.
Columns and labels:
Format in all cases: functional
[1] = test system: Mycobacterium tuberculosis; test: Antitubercular activity against Mycobacterium tuberculosis H37Rv after 21 days by broth microdilution method; settings: 504 h
Staphylococcus aureus [2] = test: Antibacterial activity against Staphylococcus aureus ATCC 6538 by disk diffusion method
Escherichia coli [3] = test: Antibacterial activity against Escherichia coli ATCC 8739 by disk diffusion method
Proteus mirabilis [4] = test: Antibacterial activity against Proteus mirabilis ATCC 14153 by disk diffusion method
Klebsiella pneumoniae [5] = test: Antibacterial activity against Klebsiella pneumoniae ATCC 4352 by tube dilution method
Klebsiella pneumoniae [6] = test: Antibacterial activity against Klebsiella pneumoniae ATCC 4352 by disk diffusion method
Streptococcus [7] = test: Antibacterial activity against beta-haemolyticus Streptococcus isolate by tube dilution method
Streptococcus [8] = test: Antibacterial activity against beta-haemolyticus Streptococcus isolate by disk diffusion method
Enterococcus faecalis [9] = test: Antibacterial activity against Enterococcus faecalis ATCC 29212 by disk diffusion method
Pseudomonas aeruginosa [10] = test: Antibacterial activity against Pseudomonas aeruginosa ATCC 9027 by tube dilution method
Pseudomonas aeruginosa [11] = test: Antibacterial activity against Pseudomonas aeruginosa ATCC 9027 by disk diffusion method
Escherichia coli [12] = test: Antibacterial activity against Escherichia coli ATCC 8739 by tube dilution method
Staphylococcus aureus [13] = test: Antibacterial activity against Staphylococcus aureus ATCC 6538 by tube dilution method
Proteus mirabilis [14] = test: Antibacterial activity against Proteus mirabilis ATCC 14153 by tube dilution method
Enterococcus faecalis [15] = test: Antibacterial activity against Enterococcus faecalis ATCC 29212 by tube dilution method

Cc1ccc2c(ccc3cc(C(C)C)c(O)cc32)c1C
MIC [1]: 0.46 µg/mL (≈ 1.74 µM) | Activity (Staphylococcus aureus [2]): inactive | Activity (Escherichia coli [3]): inactive | Activity (Proteus mirabilis [4]): inactive | MIC (Klebsiella pneumoniae [5]): 15.6 µg/mL (≈ 59 µM) | inhibition zone (IZ) (Klebsiella pneumoniae [6]): >7 mm | MIC (Streptococcus [7]): 2 µg/mL (≈ 7.57 µM) | inhibition zone (IZ) (Streptococcus [8]): >7 mm | Activity (Enterococcus faecalis [9]): inactive | MIC (Pseudomonas aeruginosa [10]): 15.6 µg/mL (≈ 59 µM) | inhibition zone (IZ) (Pseudomonas aeruginosa [11]): >7 mm

COC1=C(C(C)C)C(=O)C2=C(C1=O)[C@@]1(C)CCCC(C)(C)C1=C[C@H]2O
MIC [1]: 1.2 µg/mL (≈ 3.48 µM)

COC1=C(C(C)C)C(=O)C2=C(C1=O)[C@@]1(C)CCCC(C)(C)C1=C[C@H]2OC(C)=O
MIC [1]: 0.89 µg/mL (≈ 2.3 µM) | Activity (Staphylococcus aureus [2]): inactive | Activity (Escherichia coli [3]): inactive | Activity (Proteus mirabilis [4]): inactive | MIC (Klebsiella pneumoniae [5]): 7.2 µg/mL (≈ 18.6 µM) | inhibition zone (IZ) (Klebsiella pneumoniae [6]): >7 mm | Activity (Streptococcus [8]): inactive | Activity (Enterococcus faecalis [9]): inactive | Activity (Pseudomonas aeruginosa [11]): inactive

Nc1ccc(C(=O)O)c(O)c1 [AMINOSALICYLIC ACID]
MIC [1]: 5 µg/mL (≈ 32.7 µM)

Cc1c(O)cc2c3c(ccc2c1C)C=C(C(C)C)C(=O)C3=O [DEMETHYLMULTIORTHOQUINONE]
MIC [1]: 1.2 µg/mL (≈ 4.08 µM) | Activity (Staphylococcus aureus [2]): inactive | MIC (Escherichia coli [12]): 4.6 µg/mL (≈ 15.6 µM) | inhibition zone (IZ) (Escherichia coli [3]): >7 mm | Activity (Proteus mirabilis [4]): inactive | Activity (Klebsiella pneumoniae [6]): inactive | Activity (Streptococcus [8]): inactive | Activity (Enterococcus faecalis [9]): inactive | Activity (Pseudomonas aeruginosa [11]): inactive

CC[C@@H](CO)NCCN[C@@H](CC)CO [ETHAMBUTOL]
MIC [1]: 5 µg/mL (≈ 24.5 µM)

CCc1cc(C(N)=S)ccn1 [ETHIONAMIDE]
MIC [1]: 5 µg/mL (≈ 30.1 µM)

NNC(=O)c1ccncc1 [ISONIAZID]
MIC [1]: 0.2 µg/mL (≈ 1.46 µM)

NC[C@H]1O[C@H](O[C@H]2[C@H](O)[C@@H](O[C@H]3O[C@H](CO)[C@@H](O)[C@H](N)[C@H]3O)[C@H](N)C[C@@H]2N)[C@H](O)[C@@H](O)[C@@H]1O [KANAMYCIN]
MIC [1]: 5 µg/mL (≈ 10.3 µM)

COc1cc2c(ccc3c(C)c(C)ccc32)cc1C(C)C [MULTICAULIN]
MIC [1]: 5.6 µg/mL (≈ 20.1 µM) | MIC (Staphylococcus aureus [13]): 0.2 µg/mL (≈ 0.718 µM) | inhibition zone (IZ) (Staphylococcus aureus [2]): >7 mm | MIC (Escherichia coli [12]): 0.7 µg/mL (≈ 2.51 µM) | inhibition zone (IZ) (Escherichia coli [3]): >7 mm | MIC (Proteus mirabilis [14]): 1.4 µg/mL (≈ 5.03 µM) | inhibition zone (IZ) (Proteus mirabilis [4]): >7 mm | Activity (Klebsiella pneumoniae [6]): inactive | MIC (Streptococcus [7]): 0.2 µg/mL (≈ 0.718 µM) | inhibition zone (IZ) (Streptococcus [8]): >7 mm | Activity (Enterococcus faecalis [9]): inactive | Activity (Pseudomonas aeruginosa [11]): inactive

COc1cc2c3c(ccc2c(C)c1C)C=C(C(C)C)C(=O)C3=O [MULTIORTHOQUINONE]
MIC [1]: 2 µg/mL (≈ 6.49 µM) | MIC (Staphylococcus aureus [13]): 0.1 µg/mL (≈ 0.324 µM) | inhibition zone (IZ) (Staphylococcus aureus [2]): >7 mm | Activity (Escherichia coli [3]): inactive | Activity (Proteus mirabilis [4]): inactive | Activity (Klebsiella pneumoniae [6]): inactive | MIC (Streptococcus [7]): 0.1 µg/mL (≈ 0.324 µM) | inhibition zone (IZ) (Streptococcus [8]): >7 mm | MIC (Enterococcus faecalis [15]): 2 µg/mL (≈ 6.49 µM) | inhibition zone (IZ) (Enterococcus faecalis [9]): >7 mm | MIC (Pseudomonas aeruginosa [10]): 0.5 µg/mL (≈ 1.62 µM) | inhibition zone (IZ) (Pseudomonas aeruginosa [11]): >7 mm

CO[C@H]1/C=C/O[C@@]2(C)Oc3c(C)c(O)c4c(O)c(c(/C=N/N5CCN(C)CC5)c(O)c4c3C2=O)NC(=O)/C(C)=C\C=C\[C@H](C)[C@H](O)[C@@H](C)[C@@H](O)[C@@H](C)[C@H](OC(C)=O)[C@@H]1C [RIFAMPIN]
MIC [1]: 0.5 µg/mL (≈ 0.608 µM)

C=C[C@]1(C)C=C2[C@@H](O)C[C@H]3C(C)(C)C(=O)CC[C@]3(C)[C@]2(O)C(=O)C1 [SALVIPIMARONE]
MIC [1]: 7.3 µg/mL (≈ 22 µM) | Activity (Staphylococcus aureus [2]): inactive | Activity (Escherichia coli [3]): inactive | MIC (Proteus mirabilis [14]): 3.6 µg/mL (≈ 10.8 µM) | inhibition zone (IZ) (Proteus mirabilis [4]): >7 mm | Activity (Klebsiella pneumoniae [6]): inactive | Activity (Streptococcus [8]): inactive | MIC (Enterococcus faecalis [15]): 3.6 µg/mL (≈ 10.8 µM) | Activity (Enterococcus faecalis [9]): inactive | Activity (Pseudomonas aeruginosa [11]): inactive

CN[C@@H]1[C@H](O[C@H]2[C@H](O[C@H]3[C@H](O)[C@@H](O)[C@H](N=C(N)N)[C@@H](O)[C@@H]3N=C(N)N)O[C@@H](C)[C@]2(O)C=O)O[C@@H](CO)[C@H](O)[C@H]1O [STREPTOMYCIN]
MIC [1]: 2 µg/mL (≈ 3.44 µM)
